Literature values as cited in patent US20080181937A1, “DOSAGE REGIMEN AND MEDICAMENT FOR GUARDING MEMORY AND BRAIN HEALTH AND FOR PREVENTING OR REDUCING RISK OF ONSET OF DEMENTIA BY ADMINISTRATION OF SPECIFIC VITAMINS AND SUPPLEMENTS (MEMOGUARD)” (priority 2007, published 2008).

What was measured:
[1] = test system: patients with marked memory loss at risk for developing Alzheimer's disease
[2] = test system: animal model of rheumatoid arthritis
[3] = test system: normal healthy subjects and the elderly; conditions: fish 2-3 times a week or supplements
amyloid = conditions: in vivo

In the case of `COc1cc2c(cc1OC)C(=O)C(CC1CCN(Cc3ccccc3)CC1)C2` (centres unmarked) [Aricept], the “prevention of the onset of Alzheimer's disease” value [1] is listed as “Neither of these drugs were shown to significantly prevent the onset”.
In the case of `COc1cc(/C=C/C(=O)CC(=O)/C=C/c2ccc(O)c(OC)c2)ccc1O` [Curcumin], the inflammation [2] is given as “can reduce inflammation”.
In the case of `CC/C=C\C/C=C\C/C=C\C/C=C\C/C=C\C/C=C\CCC(=O)O` [DHA], the memory and attention ([3]; normal healthy subjects) is listed as “increases memory and attention”, the “risk of Alzheimer's” value ([3]; the elderly) is listed as “significantly lowers the risk of Alzheimer's” and the “amount of amyloid in the brain” value (amyloid) is listed as “can reduce the amount of amyloid in the brain”.
For `COc1ccc2c3c1O[C@H]1C[C@@H](O)C=C[C@@]31CCN(C)C2` [Razadyne], the “prevention of the onset of Alzheimer's disease” value [1] is given as “Neither of these drugs were shown to significantly prevent the onset”.
In the case of `CC(C)Cc1ccc(C(C)C(=O)O)cc1` (centres unmarked) [ibuprofen], the “incidence of Alzheimer's disease” value (elderly patients; observational studies, individuals taking NSAID's) is given as “lower incidence of Alzheimer's disease”.
In the case of vitamin E, the “transfer to a nursing home” value (elderly patients; patients with cognitive impairment or dementia) is listed as “can even delay transfer to a nursing home”.
